Like-named read-outs stand apart in the source and are kept apart here. Marks after values point to notes of the source that are not given here.
Assays:
M4 muscarinic receptor [1] = molecular target: T1, M4 muscarinic receptor (Homo sapiens, UniProt P08173); assay: [3H]NMS dissociation; conditions: + 100 μM rapacuronium
T1 sequence (P08173 1-479): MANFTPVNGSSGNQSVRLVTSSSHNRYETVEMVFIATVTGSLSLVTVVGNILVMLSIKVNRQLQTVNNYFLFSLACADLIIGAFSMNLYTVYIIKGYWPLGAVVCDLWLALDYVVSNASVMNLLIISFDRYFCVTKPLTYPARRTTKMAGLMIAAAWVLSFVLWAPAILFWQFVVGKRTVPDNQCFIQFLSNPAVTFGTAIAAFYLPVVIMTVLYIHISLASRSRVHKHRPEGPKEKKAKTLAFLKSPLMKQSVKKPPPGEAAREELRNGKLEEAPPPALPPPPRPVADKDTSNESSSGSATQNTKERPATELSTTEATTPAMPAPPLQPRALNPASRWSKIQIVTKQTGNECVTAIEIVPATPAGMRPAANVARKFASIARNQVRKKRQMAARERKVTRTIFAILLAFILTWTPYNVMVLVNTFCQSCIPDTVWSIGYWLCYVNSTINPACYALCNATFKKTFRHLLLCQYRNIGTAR
Excerpt: y, radioligand binding at time x normalized to binding at time 0; koff1 and koff2, dissociation rate constants; f2, fraction of binding site with dissociation rate constant koff2. When both Eq. 7a and 7b were fitted to data the better fit was chosen based on sum of squares F-test and runs test.

M5 muscarinic receptor = molecular target: T2, M5 muscarinic receptor (Homo sapiens, UniProt P08912); assay: [3H]ACh saturation binding; set-up: host or cells: CHO cells, stably transfected; membranes
T2 sequence (P08912 1-532): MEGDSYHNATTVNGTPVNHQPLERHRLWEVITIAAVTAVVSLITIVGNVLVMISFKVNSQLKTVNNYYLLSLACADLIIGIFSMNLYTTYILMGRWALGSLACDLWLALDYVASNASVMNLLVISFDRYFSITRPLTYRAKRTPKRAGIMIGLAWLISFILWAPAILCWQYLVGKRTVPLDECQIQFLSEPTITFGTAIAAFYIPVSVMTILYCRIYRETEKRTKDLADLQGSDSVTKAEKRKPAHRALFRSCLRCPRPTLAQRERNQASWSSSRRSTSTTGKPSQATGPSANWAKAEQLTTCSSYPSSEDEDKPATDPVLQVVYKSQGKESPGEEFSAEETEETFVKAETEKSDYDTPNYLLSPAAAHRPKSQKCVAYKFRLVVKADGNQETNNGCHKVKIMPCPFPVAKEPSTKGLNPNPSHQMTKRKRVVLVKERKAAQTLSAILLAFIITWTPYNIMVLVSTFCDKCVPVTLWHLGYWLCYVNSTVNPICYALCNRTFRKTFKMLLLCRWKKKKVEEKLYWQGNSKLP
Excerpt: (§1) BMAX, maximum binding capacity; KD, equilibrium dissociation constant.

M4 muscarinic receptor [2] = molecular target: T1, M4 muscarinic receptor; assay: [3H]ACh saturation binding; set-up: host or cells: CHO cells, stably transfected; membranes
Excerpt: as §1

M1 muscarinic receptor = molecular target: T3, M1 muscarinic receptor (Homo sapiens, UniProt P11229); type: binding
T3 construct: host or cells: CHO cells, stably transfected; membrane preparation
T3 sequence (P11229 1-460): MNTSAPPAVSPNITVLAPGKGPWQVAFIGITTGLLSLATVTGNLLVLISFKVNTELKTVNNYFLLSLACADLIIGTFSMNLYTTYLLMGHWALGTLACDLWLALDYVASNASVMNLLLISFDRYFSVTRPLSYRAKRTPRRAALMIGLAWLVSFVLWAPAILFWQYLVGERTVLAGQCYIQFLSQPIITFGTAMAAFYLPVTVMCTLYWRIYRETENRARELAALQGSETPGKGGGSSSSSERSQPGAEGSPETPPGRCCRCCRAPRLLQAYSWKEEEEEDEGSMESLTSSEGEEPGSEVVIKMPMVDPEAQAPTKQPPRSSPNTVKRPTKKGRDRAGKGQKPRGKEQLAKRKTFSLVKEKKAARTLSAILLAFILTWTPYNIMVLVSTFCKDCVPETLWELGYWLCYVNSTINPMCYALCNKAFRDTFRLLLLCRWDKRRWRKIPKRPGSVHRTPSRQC
Excerpt: as §1

M3 muscarinic receptor = molecular target: T4, M3 muscarinic receptor (Homo sapiens, UniProt P20309); type: binding
T4 construct: host or cells: CHO cells, stably transfected; membranes
T4 sequence (P20309 whole entry): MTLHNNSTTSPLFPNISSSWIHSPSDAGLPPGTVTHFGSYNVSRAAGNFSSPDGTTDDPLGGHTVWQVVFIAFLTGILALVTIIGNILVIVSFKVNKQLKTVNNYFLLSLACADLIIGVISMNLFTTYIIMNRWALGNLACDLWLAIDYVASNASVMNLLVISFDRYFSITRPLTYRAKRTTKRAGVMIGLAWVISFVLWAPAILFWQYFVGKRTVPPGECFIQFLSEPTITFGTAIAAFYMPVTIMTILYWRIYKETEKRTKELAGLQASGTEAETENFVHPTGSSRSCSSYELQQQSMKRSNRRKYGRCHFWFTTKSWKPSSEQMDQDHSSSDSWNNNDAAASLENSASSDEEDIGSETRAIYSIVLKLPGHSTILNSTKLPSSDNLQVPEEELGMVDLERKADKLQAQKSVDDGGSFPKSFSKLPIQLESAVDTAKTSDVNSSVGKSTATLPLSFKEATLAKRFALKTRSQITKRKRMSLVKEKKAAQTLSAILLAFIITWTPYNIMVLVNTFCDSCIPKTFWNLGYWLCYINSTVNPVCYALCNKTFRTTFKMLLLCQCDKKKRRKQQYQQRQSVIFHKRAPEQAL
Excerpt: as §1

C=CC[N+]1([C@H]2C[C@H]3[C@@H]4CC[C@H]5C[C@H](OC(C)=O)[C@@H](N6CCCCC6)C[C@]5(C)[C@H]4CC[C@]3(C)[C@H]2OC(=O)CC)CCCCC1 [rapacuronium]
f2, fraction of sites with faster dissociation (M4 muscarinic receptor [1]): 6.0 ± 2.0%
koff1 of [^3H]NMS dissociation (M4 muscarinic receptor [1]): 0.017 ± 0.001* min^-1
koff2 of [^3H]NMS dissociation (M4 muscarinic receptor [1]): 0.0125 ± 0.00183 s⁻¹
BMAX of [^3H]ACh (M5 muscarinic receptor; + 10 μM rapacuronium): 0.33 ± 0.03 fmol/μg of protein
BMAX of [^3H]ACh (M5 muscarinic receptor; + 100 μM rapacuronium): 0.34 ± 0.06 fmol/μg of protein
BMAX of [^3H]ACh (M4 muscarinic receptor [2]; + 10 μM rapacuronium): 0.54 ± 0.05 fmol/μg of protein
BMAX of [^3H]ACh (M4 muscarinic receptor [2]; + 100 μM rapacuronium): 0.47 ± 0.04 fmol/μg of protein
BMAX of [^3H]NMS (M1 muscarinic receptor; + 10 μM rapacuronium): 2.03 ± 0.15 fmol/μg of protein
BMAX of [^3H]NMS (M1 muscarinic receptor; + 100 μM rapacuronium): 1.85 ± 0.17 fmol/μg of protein
BMAX of [^3H]NMS (M3 muscarinic receptor; + 10 μM rapacuronium): 1.67 ± 0.14 fmol/μg of protein
BMAX of [^3H]NMS (M3 muscarinic receptor; + 100 μM rapacuronium): 1.59 ± 0.16 fmol/μg of protein

Source: paper PMC2806265, “Divergence of allosteric effects of rapacuronium on binding and function of muscarinic receptors” (BMC Pharmacology, 2009)
